Earlier results on 1 compound are cited in patent US6680310B2, “Methods for preventing antipsychotic-induced weight gain” (Corcept Therapeutics, Inc., priority 2001, dated 2004).

The structures appear in SMILES notation.

The conditions of this data set: in one study (Kawai, supra).

In the case of `CC#C[C@]1(O)CC[C@H]2[C@@H]3CCC4=CC(=O)CCC4=C3[C@@H](c3ccc(N(C)C)cc3)C[C@@]21C` [Mifepristone, 17-beta-hydroxy-11-beta-(4-dimethyl-aminophenyl)-17-alpha(1-propynyl)-estra-4,9-dien-3-one], the “fraction of the daily dose excreted in the urine” value was “less than 0.5%”.
